Test in all cases: PapG Luminex ligand binding at equilibrium
The target in assay [1] is T1, E. coli CFT073 PapG-II lectin domain PapGLD N96S WT v1, SEQ ID NO: 13 (Escherichia coli, UniProt A0A0H2VAQ6, N116S).
T1 sequence (A0A0H2VAQ6 with tags, fused parts or gaps N116S): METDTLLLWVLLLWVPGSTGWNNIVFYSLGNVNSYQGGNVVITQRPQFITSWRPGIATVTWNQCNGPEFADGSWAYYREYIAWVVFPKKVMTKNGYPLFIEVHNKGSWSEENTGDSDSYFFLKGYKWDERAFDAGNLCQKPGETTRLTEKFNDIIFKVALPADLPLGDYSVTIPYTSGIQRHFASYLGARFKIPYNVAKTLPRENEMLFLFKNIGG
The conditions noted are these: HEPES pH 7.4, 4° C. overnight. On the procedure:
(§1) To determine the ability of PapGLD mutants to bind the porcine derived globotetraosyl ceramide ligand GalNAc-Gal-Gal-Glc-ceramide (GbO4), a Luminex ligand binding assay was developed. Surfactant Protein-A (SP-A) was coupled to the surface of MagPlex beads by EDC/NHS, to capture the lipid tail of the globotetraosyl ceramide. The Globotetraosyl ceramide/SP-A beads were incubated with an eight-point threefold titration of PapG in a 96 well flat bottom white plate with final volume of 100 microliters of 50 mM HEPES PH 7.4, 10 mM NaCl, 0.0005% Tween 20 shaking at 300 rpm, 4° C. overnight. After 20-24 hours the ligand binding plates were read on a FlexMap 3D plate reader for measurement of well-bead region specific MFI. Ligand binding equilibrium dissociation constants (Kd) were calculated assuming one site specific binding and interpolated using non-linear curve fitting (GraphPad Prism) as the ligand concentration needed to achieve half-maximal binding. The Luminex derived apparent Kd values are based on approximately fifty bead counts per assay sample.
(§2) To determine Luminex ligand binding affinities of PapG mutants for the synthetic globoside ligand Gal-Glc-phenoxy-octyl-amine (GbO2Mpo), a Luminex ligand binding assay was developed based on the direct coupling of the amine reactive globoside ligand to the EDC/NHS activated carboxylic surface of MagPlex beads. Synthesis of GbO2Mpo ligand with an octyl amine linker (for coupling to beads) was performed via methods described previously. The GbO2Mpo beads were incubated with an 8-point, threefold titration of PapG in a 96-well flat bottom white plate with final volume of 100 μl of 50 mM HEPES pH 7.4, 10 mM NaCl, 0.0005% Tween 20 shaking at 300 rpm, 4° C. overnight. After 20-24 hours the ligand binding plates were read on a FlexMap 3D plate reader for measurement of well-bead region specific MFI.
(§3) Binding of PapG proteins to GbO2 or GbO4 ligands was evaluated using a Luminex platform wherein ligands were coupled to MagPlex beads via surfactant protein A (for […]) or directly using […] conjugation (for […]). This assay was used to rank order binding affinities of the mutants, reported as Kd values interpolated from protein antigen titration curves (Table 7).

Assay [2] concerns the target T2, E. coli CFT073 PapG-II lectin domain PapGLD variant N96S G86A, SEQ ID NO: 14 (Escherichia coli, UniProt A0A0H2VAQ6, G106A/N116S).
T2 sequence (A0A0H2VAQ6 with tags, fused parts or gaps G106A/N116S): T1 sequence (A0A0H2VAQ6 with tags, fused parts or gaps N116S) with G106A
The conditions noted are these: HEPES pH 7.4, 4° C. overnight. On the procedure: as §1, §2, §3

In assay [3] the target is T3, E. coli CFT073 full-length donor strand complemented PapG-II, PapGDSF variant N96S N242S N286S K172A, SEQ ID NO: 26 (Escherichia coli, UniProt A0A0H2VAQ6, K192A/N116S/N262S/N306S).
T3 construct: mouse IgGK signal peptide, C-terminal 8xHis, ExpiCHO, purified
T3 sequence (A0A0H2VAQ6 with tags, fused parts or gaps N116S/K192A/N262S/N306S): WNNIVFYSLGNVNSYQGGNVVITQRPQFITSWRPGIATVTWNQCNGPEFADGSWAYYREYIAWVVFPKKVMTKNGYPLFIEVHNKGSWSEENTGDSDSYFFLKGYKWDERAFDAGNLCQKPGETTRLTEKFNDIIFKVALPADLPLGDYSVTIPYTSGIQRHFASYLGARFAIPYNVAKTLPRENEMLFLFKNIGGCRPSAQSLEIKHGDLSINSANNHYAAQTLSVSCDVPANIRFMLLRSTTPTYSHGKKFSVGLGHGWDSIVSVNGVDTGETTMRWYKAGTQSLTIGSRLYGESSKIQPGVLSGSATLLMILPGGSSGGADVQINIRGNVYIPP
The conditions noted are these: for Kd: HEPES pH 7.4, 4° C. overnight. As to the method:
as §1, §2, §3

Assay [4] deals with T4, E. coli CFT073 full-length donor strand complemented PapG-II, PapGDSF N96S N242S N286S (Escherichia coli, UniProt A0A0H2VAQ6, N116S/N262S/N306S).
T4 construct: mouse IgGK signal peptide, C-terminal 8xHis, ExpiCHO, purified
T4 sequence (A0A0H2VAQ6 with tags, fused parts or gaps N116S/N262S/N306S): T3 sequence (A0A0H2VAQ6 with tags, fused parts or gaps N116S/K192A/N262S/N306S) with A172K
Particulars: HEPES pH 7.4, 4° C. overnight. As to the method: as §1, §2, §3

The target in assay [5] is T5, E. coli CFT073 PapG-II lectin domain PapGLD variant N96S G168A, SEQ ID NO: 17 (Escherichia coli, UniProt A0A0H2VAQ6, G188A/N116S).
T5 sequence (A0A0H2VAQ6 with tags, fused parts or gaps N116S/G188A): T1 sequence (A0A0H2VAQ6 with tags, fused parts or gaps N116S) with G188A
The conditions noted are these: HEPES pH 7.4, 4° C. overnight. On the procedure:
as §1, §2, §3

The mark [6] stands for this setting: GbO2Mpo beads, read-out: Kd (GbO2).
Where [7] appears, read: GbO4 beads, read-out: Kd (GbO4).

These results are taken from patent US20260061042A1, “POLYNUCLEOTIDE COMPOSITIONS AND USES THEREOF” (Pfizer Inc., priority 2024, published 2026).

Where a chain is given by its changes, count along the chain named. Read-outs that look alike come from different tables or passages of the source.

As for Gal-Glc-phenoxy-octyl-amine [GbO2], the Kd – broadly, the free concentration of one partner at which half of the binding sites on the other are occupied at equilibrium, for simple one-to-one binding – in assay [1] (setting [6]) was 0.7 nM; in assay [2] (setting [6]), 1.3 nM; in assay [3] (setting [6]), greater than 300 nM; in assay [4] (setting [6]), 2.2 nM; in assay [5] (setting [6]), 2.7 nM. Also, the “binding to GbO2 (in words)” value in assay [3] is given as “no binding was detected”.

As for GalNAc-Gal-Gal-Glc-ceramide [GbO4], the Kd in assay [1] (setting [7]) is 14.1 nM; in assay [2] (setting [7]), 15 nM; in assay [3] (setting [7]), greater than 300 nM; in assay [4] (setting [7]) it was 3 nM; in assay [5] (setting [7]) it was greater than 100 nM. In addition, the “binding to GbO4 (in words)” value in assay [3] is “no binding was detected”.
